# From patent publication EP0903346A1, “SYDNONE IMINE DERIVATIVES” (Chugai Seiyaku Kabushiki Kaisha, priority 1995, dated 1997)
# Tested on: platelet rich plasma (PRP)
# Assay: Inhibitory effect on platelet aggregation in rabbit
# Format: cell-based
# Settings: Oryctolagus cuniculus, aggregation agent arachidonic acid, pre-incubated for 3 minutes, invention compound n = 1 - 3, aspirin n = 7, read-out: Rabbit antiplatelet aggregation effect IC50
# Method: Male JW/CSK rabbits weighing 2.6 to 3.1 kg were anesthetized with thiopental (20 mg/kg). Then the blood of each animal was collected from the left carotid artery into a container containing a 3.8% solution of citric acid (9 : 1 v/v). The collected blood was immediately centrifuged at room temperature at 1,300 rpm (230 G) for 10 minutes to give a platelet rich plasma (PRP). Further, a required amount of the blood was centrifuged at 3,000 rpm (1,300 G) for 15 minutes to give a platelet poor plasma (PPP). The PRP to be used in the platelet aggregation test was diluted with PPP to adjust the platelet count to 3 x 10^8. The aggregability was measured by using a platelet aggregation measuring device (TE-500, ERMA) with the use of arachidonic acid ([…]) as an aggregation agent. Each test compound was mixed with PRP and pre-incubated for 3 minutes. Next, the aggregation agent was added thereto and the aggregability was measured for 5 minutes. Thus, the activity of the test compound was evaluated by determining the 50% inhibitory concentration (IC50; µM) thereof to the maximum aggregation induced by the arachidonic acid. As the test compounds, the compounds of the present invention obtained in the above Examples were employed. As a control drug, use was made of aspirin which has been widely known as a platelet aggregation inhinitor. Table E summarizes the results. Table E
row,SMILES,IC50 [µM]
1,"CN1CCN([n+]2cc([N-]C(=O)CSC(=O)c3ccccc3)on2)CC1 [Example 3, N-((Benzoylthio)acetyl)-3-(4-methylpiperazin-1-yl)sydnonimine]",2.7
2,"CCN1CCN([n+]2cc([N-]C(=O)CSC(=O)C3(C)CCc4c(C)c(O)c(C)c(C)c4O3)on2)CC1 (stereo not shown) [Example 192, N-((6-Hydroxy-2,5,7,8-tetramethylchroman-2-carbonylthio)acetyl)-3-(4-ethylpiperazin-1-yl)sydnonimine]",3.9
3,"CN1CCN([n+]2cc([N-]C(=O)CCSC(=O)c3ccc(F)cc3)on2)CC1 [Example 135, N-(3-(4-Fluorobenzoylthio)propionyl)-3-(4-methylpiperazin-1-yl)sydnonimine]",12.9
4,"CC(=O)Oc1ccccc1C(=O)O [aspirin, reference compound]",27.5
5,"CCN1CCN([n+]2cc([N-]C(=O)[C@H](C)CSC(=O)c3ccccc3)on2)CC1 [Example 68, N-((S)-3-(Benzoylthio)isobutyryl)-3-(4-ethylpiperazin-1-yl)sydnonimine]",10.5
6,"CC(=O)SCC(=O)[N-]c1c[n+](N2CCN(C(C)C)CC2)no1 [Example 86, N-(Acetylthioacetyl)-3-(4-isopropylpiperazin-1-yl)sydnonimine]",1.3
7,"COc1ccc(C(=O)SCCC(=O)[N-]c2c[n+](N3CCN(C)CC3)no2)cc1 [Example 139, N-(3-(4-Methoxybenzoylthio)propionyl)-3-(4-methylpiperazin-1-yl)sydnonimine]",15.8
8,"C[C@H](CSC(=O)c1ccccc1)C(=O)[N-]c1c[n+](N2CCN(C)CC2)no1 [Example 2, N-((S)-3-(Benzoylthio)isobutyryl)-3-(4-methylpiperazin-1-yl)sydnonimine]",15.8
9,"CC(C)N1CCN([n+]2cc([N-]C(=O)CSC(=O)c3ccccc3)on2)CC1 [Example 88, N-(Benzoylthioacetyl)-3-(4-isopropylpiperazin-1-yl)sydnonimine]",1.1

# Tested on: rat A-V shunt model
# Assay: Effect on blood coagulability in rat A-V shunt model
# Format: in vivo
# Settings: 10 mg/kg p.o.; from 75 minutes to 2 hours after administration; mean ± S.E. (n = 6)
# Method: Rat A-V shunts models were prepared by reference to the method of Umezu et al. (Thrombos Haemostas. 1978:39:74 - 83). Male SD rats were anesthetized with sodium pentobarbital (50 mg/kg, i.p.) and fixed in the supine position. A thick polyethylene tube (6 cm; Hibiki No. 7, Kunii Co.) containing a silk suture thread was connected at both ends to another thin polyethylene tube (10 cm, Hibiki No. 4, Kunii Co.) and then inserted into the left common carotid artery and the right internal jugular vein of the rat so as to form an external blood circulation system (A-V Shunt). The blood was circulated within the shunt system for 15 minutes and then the blood coagulates adhering to the silk suture thread in the thick tube was weighed. After repeating this operation thrice, the total weight was determined and the activity of each test compound was evaluated based thereon.
# In this experiment, the anti-aggregation effects achieved from 75 minutes to 2 hours after the peroral administration were examined in a vehicle group (0.3% carboxymethyl cellulose, hereinafter referred to simply as CMC; n = 6), a group of the compound of Example 2 (10 mg/kg; n = 6) and a group of FK-409 (10 mg/kg; n = 6) which had been reported as being capable of inhibiting the formation of blood coagulates (European Journal of Pharmacology, 1995:272:39 - 43). Table F summarizes the results. Table F […]
row,SMILES,Blood coagulability in rat A-V shunt model p.o. administration; wt. (mg) of coagulates [mg]
1,CC/C(=C\C(=N/O)C(N)=O)C(C)[N+](=O)[O-] (stereo not shown) [FK409],89.17 ± 8.43
